Experiments:
pericellular cathepsin B [1] = molecular target: T1, pericellular cathepsin B (Mus musculus, UniProt P10605); test: Pericellular cathepsin B assay (z-Arg-Arg-AMC) on transfected LLC cells; format: biochemical; settings: 25 nM inhibitor added to the assay
T1 construct: These cells normally express cathepsin B; endogenous in cells; host or cells: Lewis lung carcinoma (LLC) cells, intact cell suspension, transfected with AHSG or empty vectors (not with cathepsin B)
Description: In this example we used the fluorogenic substrate called z-Arg-Arg-AMC. […] The ability of this substrate to stay outside the cell allowed us to measure the enzymatic activity of pericellular cathepsin B (Hulkower, K. I. et al Eur J Biochem 267:4165 (2000). Many human and mouse cancer cell lines have cathepsin B activity on the cell surface.
To measure the effect of AHSG on the activity of cathepsin B, we expressed AHSG using expression vectors, pAAV-AHSG or pCDNA-AHSG that were used to transfect Lewis lung carcinoma (LLC) cells. These cells normally express cathepsin B (Hulkower, K. I. et al Eur J Biochem 267:4165 (2000)). Thus the addition of the substrate to the cells transfected with a non-specific vector lead to lysis of the peptide and the resulting level of cathepsin B activity was arbitrarily set at 100 (FIG. 7, left column). Cathepsin B activity following transfection with pAAV-AHSG was roughly 25% lower than that in control cells (FIG. 7, second column). Next 25 nM of a known inhibitor of cathepsin B, CA 074 was added to the assay. […] Despite the low transfection efficiency of LLC cells that ranged from 10 to 20% as measured using in situ staining of β-galactosidase activity, the observed reduction of the cathepsin B in the presence of AHSG supports the present invention that expression of AHSG suppresses cathepsin B activity on the cell surface. […]

pericellular cathepsin B [2] = test: Pericellular cathepsin B assay with partially purified AHSG or concentrated spent media of infected HEK293 cells (FIG. 8); format: biochemical; settings: for inhibition of pericellular cathepsin B activity: FIG. 8
Description: 50 μl of the cell suspension was added to a black walled 96 well plate (ThermoLabsystems, Part No. 8220, Vantaa, Finland). The appropriate concentration of inhibitors of cathepsin B, purified AHSG or concentrated media were diluted in 5 μl of PAB and the added to the cell suspension in each of the 96 wells. The plate was pre-incubated at 40° C. for 30 min. The reaction was started by adding 50 μl of a 200 μM solution of z-Arg-Arg-AMC (EMD Biosciences Inc, Darmstadt, Germany), a fluorogenic peptide that is lysed by cathhepsin B. This substrate was dissolved in PAB and pre-incubated at 40° C. prior to use. Hydrolytic activity of cathepsin B produces free AMC from the substrate peptide resulting in increased fluorescence. The intensity of fluorescence was measured using ThermoLabsystems Fluoroskan microplate reader with a 355 nm excitation filter and a 420 nm emission filter. The stock solution of z-Arg-Arg-AMC was dissolved in DMSO at the concentration of 10 mM and stored in −80° C. The Cathepsin B specific inhibitors CA-074 and Ac-LVK-CHO (EMD Biosciences Inc., Darmstadt, Germany) were dissolved in H2O at the concentration of 10 mM, aliquoted and stored in −80° C.
HEK 293 cells were subcultured at the cell density of 40% confluence in the morning of the study. […] The next day culture medium was replaced with fresh D-MEM supplemented with 5% FCS and culture for 2 additional days. The culture medium was passed through a filter with the pore size of 0.22 micron and then stored at −80° C. […] A centrifugal filtration unit, NanoSep 100 (Pall Corporation, Ann Arbor, Mich.) were applied to collect the molecular weights lower than 100 kD. The 0.4 ml of the flow through fraction from NanoSep 100 was applied to Nanosep30 and the remaining protein on the filter membrane was re-suspended in 40 μl of PAB (Hank's balanced salt solution without sodium bicarbonate, 0.6 mM MgCl2, 0.6 mM CaCl2, 2 mM 1-cystein and 25 mM PIPES adjusted pH to 7.0) The protein concentration was determined using Bradford reagent (Bio-Rad, Hercules, Calif.). The aliqouts of protein solution was flash frozen by liquid nitrogen and stored in −80° C. prior to use.

T1 sequence (P10605 80-333): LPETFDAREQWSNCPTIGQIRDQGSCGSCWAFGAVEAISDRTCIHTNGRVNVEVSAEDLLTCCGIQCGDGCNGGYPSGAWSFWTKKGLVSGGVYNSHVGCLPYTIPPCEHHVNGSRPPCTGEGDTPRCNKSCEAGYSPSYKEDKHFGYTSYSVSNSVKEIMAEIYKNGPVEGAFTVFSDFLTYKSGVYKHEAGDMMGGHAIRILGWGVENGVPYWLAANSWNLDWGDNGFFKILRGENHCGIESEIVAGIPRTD

Molecule: CCCNC(=O)[C@H]1O[C@@H]1C(=O)N[C@H](C(=O)N1CCC[C@H]1C(=O)O)[C@@H](C)CC [CA-074]
- inhibition of cathepsin B activity (words) (pericellular cathepsin B [1]): inhibited cathepsin B activity
- inhibition of cathepsin B activity (words) (pericellular cathepsin B [1]; listed as CA 074): expected inhibition of cathepsin B activity
- inhibition of pericellular cathepsin B activity (pericellular cathepsin B [2]): inhibited activity of cathepsin B

B1: purchased AHSG: purchased AHSG (Sigma) partially purified from human plasma (protein, UniProt P02765 19-300; P02765 341-367, looked up)
Alpha-2-HS-glycoprotein chain … 1: APHGPGLIYRQPNCDDPETEEAALVAIDYINQNLPWGYKHTLNQIDEVKVWPQQPSGELFEIEIDTLETTCHVLDPTPVARCSVRQLKEHAVEGDCDFQLLKLDGKFSVVYAKCDSSPDSAEDVRKVCQDCPLLAPLNDTRVVHAAKAALAAFNAQNNGSNFQLEEISRAQLVPLPPSTYVEFTVSGTDCVAKEATEAAKCNLLAEKQYGFCKATLSEKLGGAEVAVTCMVFQTQPVSSQPQPEGANEAVPTPVVDPDAPPSPPLGAPGLPPAGSPPDSHVL
Alpha-2-HS-glycoprotein chain … 2: TVVQPSVGAAAGPVVPPCPGRIRHFKV
- inhibition of pericellular cathepsin B activity (pericellular cathepsin B [2]): inhibited completely the activity of cathepsin B
- inhibition of pericellular cathepsin B activity (pericellular cathepsin B [2]; listed as AHSG purchased from Sigma): significant inhibition of pericellular cathepsin B activity
- amount of protein required for complete inhibition, relative to the concentration of AHSG in the blood of adults (0.3 to 0.6 mg/ml) (pericellular cathepsin B [2]; one of the lots): less than 10%

— patent publication US20050036994A1, “Compounds and methods for downregulating the effects of TGF-beta” (priority 2003, published 2005)
